# According to patent publication US20210338820A1, “PHARMACEUTICAL COMPOSITION COMPRISING ANTIEMETIC COMPOUNDS AND POLYORTHOESTER” (Heron Therapeutics, Inc., priority 2012, published 2021):
# Tests used:
# [1] = In-vitro release of formulation of aprepitant and granisetron (Example 1 formulation); assay type: physicochemical; conditions: 37° C.; for active agent released from the formulation: Example 1 formulation, PBS + 2% CTAB; for in vitro release proceeded in a linear fashion up to: Example 1 semi-solid polyorthoester formulation, phosphate buffered saline + 2% CTAB, HPLC, FIG. 3
# Description: In a first embodiment, 375 mg of aprepitant was dissolved in 1.3 g of a polyorthoester-compatible liquid excipient, dimethyl sulfoxide, and heated until completely dissolved. […] In a further embodiment, the formulation was weighed into vials and filled with a phosphate buffered saline solution and 2% CTAB (cetrimonium bromide). The vials were then stored at 37° C. Aliquots were taken daily and analyzed by HPLC to monitor for the release of granisetron and aprepitant from the formulation.
# A formulation as described in Example 1 was weighed into vials and filled with a phosphate buffered saline solution and 2% CTAB (cetrimonium bromide). The vials were then stored at 37° C. Aliquots were taken daily and analyzed by HPLC to monitor for the release of granisetron and aprepitant from the formulation.
# [2] = In-vitro release of formulation of fosaprepitant and granisetron (Example 6 formulation); assay type: physicochemical; conditions: 37° C.; for active agent released from the formulation: Example 6 formulation, PBS; for in vitro release proceeded in a linear fashion up to: Example 6 semi-solid polyorthoester formulation, phosphate buffered saline, HPLC, FIG. 1
# From the text: In a fifth embodiment, a formulation as described in Example 6 was weighed into vials and filled with a phosphate buffered saline solution.
# A formulation as described in Example 6 was weighed into vials and filled with a phosphate buffered saline solution.
# [3] = In vitro release of a formulation containing aprepitant (Example 3 formulation); assay type: physicochemical; conditions: Example 3 semi-solid polyorthoester formulation; PBS + 2% CTAB, 37° C., HPLC, FIG. 4
# Description: In a further embodiment, the formulation was weighed into vials and filled with a phosphate buffered saline solution and 2% CTAB. The vials were then stored at 37° C. and analyzed by HPLC to monitor for the release of aprepitant from the formulation (see FIG. 4).
# A formulation as described in Example 3 was weighed into vials and filled with a phosphate buffered saline solution and 2% CTAB. The vials were then stored at 37° C. and analyzed by HPLC to monitor for the release of aprepitant from the formulation.
# [4] = dog, in vivo, sc
# Description: The syringes were stored at 2-8 C and brought to room temperature 1 hour before administration. Each dog received a single subcutaneous injection of the entire contents of 1 syringe (0.5 gm) over the dorsal lumbar muscle on Day 1. Blood was drawn from all dogs at the following time points: T=0, (immediately prior to drug administration), 1, 6, 12, 24, 48, 72, 96, 120, 144, and 168 hours post administration.
smiles,measurement,setting,value
CN1C2CCCC1CC(NC(=O)c1nn(C)c3ccccc13)C2 (centres unmarked) [granisetron],active agent released from the formulation,[1]; at about 48 hours,about 65%
same,active agent released from the formulation,[1]; at about 144 hours,about 90%
same,in vitro release proceeded in a linear fashion up to,[1],about 48 hours
same,active agent released from the formulation,[2]; after about 60 hours,about 80%
same,active agent released from the formulation,[2]; at about 45 hours,about 25%
same,active agent released from the formulation,[2]; at about 100 hours,Nearly all
same,in vitro release proceeded in a linear fashion up to,[2],about 45 hours
C[C@@H](O[C@H]1OCCN(Cc2n[nH]c(=O)[nH]2)[C@H]1c1ccc(F)cc1)c1cc(C(F)(F)F)cc(C(F)(F)F)c1 [aprepitant],active agent released from the formulation,[1]; after about 120 hours,about 90%
same,active agent released from the formulation,[1]; at about 48 hours,about 65%
same,active agent released from the formulation,[1]; at about 144 hours,Essentially all
same,in vitro release proceeded in a linear fashion up to,[1],about 48 hours
same,in vitro release proceeded in a linear fashion up to,[3],about 72 hours
same,active agent released from the formulation,[2]; at about 100 hours,about 65%
same,bioavailability (areas under the curves),[4],good bioavailability
C[C@@H](O[C@H]1OCCN(Cc2nc(O)n(P(=O)(O)O)n2)[C@H]1c1ccc(F)cc1)c1cc(C(F)(F)F)cc(C(F)(F)F)c1 [fosaprepitant],active agent released from the formulation,[2]; after about 60 hours,about 60%
same,active agent released from the formulation,[2]; at about 45 hours,about 25%
same,in vitro release proceeded in a linear fashion up to,[2],about 45 hours
